The values that follow are results of earlier work, collected in US20240050950A1, “GRADIENT-BASED MICROFLUIDIC CIRCUIT, DEVICE, AND METHOD FOR PERFORMING AN ASSAY” (priority 2020, published 2024).

Where a name gives a salt, the structure may show the parent alone. Numbered stars: 1 amine (or outer) side, 2 acyl side, 3 side chain; on linkers, the order of the positions; unused ones are H or OH. Bridge positions count the residues as written; N and C are the ends. Square brackets hold non-standard residues; d marks the D form. Peptide text beside a SMILES is read from it. X1 = CC(C)CCCCCCCCC[C@H](CC(=O)[*:1])O[*:2]

For one data set the following is noted: Table 1, antimicrobial agents/drugs; cited from earlier work.
Take `CO[C@@H]1C[C@@H](C[C@H]2CC[C@H](C)[C@H]([C@@H](C)C(=O)O)O2)O[C@]2(O[C@](C)([C@H]3CC[C@@](C)([C@@H]4O[C@@H]([C@H]5O[C@@](O)(CO)[C@H](C)C[C@@H]5C)C[C@@H]4C)O3)C[C@H]2C)[C@@H]1C` [Nigericin]: the Molar volume was 607.9 ± 5.0 cm^3.

For `NC(=O)c1ncn([C@@H]2O[C@H](CO)[C@@H](O)[C@H]2O)n1` [Ribavirin], the Molar volume was 117.0 ± 7.0 cm^3.

As for `C[C@H]1CCC/C=C/[C@@H]2C[C@H](O)C[C@H]2[C@H](O)/C=C/C(=O)O1` [Brefeldin A], the Molar volume is listed as 252.9 ± 3.0 cm^3.

As for Polymyxin B, the Molar volume was 941.8 ± 5.0 cm^3.

For the compound `[H]/N=C(\N/C(=N/[H])NCCCCCCNC(=N)NC(=N)Nc1ccc(Cl)cc1)Nc1ccc(Cl)cc1` [Chlorhexidine], the Molar volume is 363.3 ± 7.0 cm^3.

`C[C@@H]1C[C@H]2O[C@@H]2/C=C\C=C\C(=O)Cc2c(Cl)c(O)cc(O)c2C(=O)O1` [Radicicol]: the Molar volume is 267.3 ± 3.0 cm^3.

Turning to `[H]/N=C(/N)N[C@H]1[C@H](O)[C@@H](O)[C@H](O[C@@H]2O[C@@H](C)[C@](O)(C=O)[C@H]2O[C@@H]2O[C@@H](CO)[C@H](O)[C@@H](O)[C@@H]2NC)[C@@H](N/C(N)=N\[H])[C@@H]1O` [Streptomycin], the Molar volume is 293.4 ± 7.0 cm^3.

For `COc1cc2c(oc(=O)c3cc(C)cc(OC)c32)c2c([C@@H]3O[C@H](C)[C@H](O)[C@@](C)(O)[C@H]3O)ccc(O)c12` [Chrysomycin B (MFCD07370132), Chrysomycin B], the Molar volume was 352.0 ± 3.0 cm^3.

In the case of `CC(/C=C/C[C@@H](C)/C=C(C)/C=C/[C@@H]1OC(=O)C=C[C@@H]1C)=C\[C@@H](C)C(=O)[C@@H](C)[C@H](O)[C@@H](C)C/C(C)=C/C(=O)O` [Leptomycin A], the Molar volume is given as 487.8 ± 3.0 cm^3.

As for `Oc1c(Cl)cc(Cl)cc1Sc1cc(Cl)cc(Cl)c1O` [Bithionol], the Molar volume is given as 202.7 ± 5.0 cm^3.

As to `C=CCc1ccc(O)c(-c2ccc(O)c(CC=C)c2)c1` [Honokiol], the Molar volume is given as 240.4 ± 3.0 cm^3.

Take `Nc1ncnc2c([C@@H]3O[C@H](CO)[C@@H](O)[C@H]3O)[nH]nc12` [Formycin A]: the Molar volume was 128.1 ± 7.0 cm^3.

Take `NC(=O)c1cnccn1` [Pyrazinecarboxamide]: the Molar volume is reported as 87.7 ± 7.0 cm^3.

Turning to `c1ccc([C@H]2CN3CCSC3=N2)cc1` [Levamisol (Levamisole), Levamisole], the Molar volume is recorded as 154.1 ± 7.0 cm^3.

`CN1C[C@H](O)[C@@H](O)[C@H](O)[C@H]1CO` [N-Methyl-1-deoxynojirimycin (1524564), N-Methyl-1-deoxynojirimycin]: the Molar volume is on record as 127.0 ± 3.0 cm^3.

In the case of `CC[C@H]1OC(=O)[C@H](C)[C@@H](O[C@H]2C[C@@](C)(OC)[C@@H](O)[C@H](C)O2)[C@H](C)[C@@H](O[C@@H]2O[C@H](C)C[C@H](N(C)C)[C@H]2O)[C@@]2(C)C[C@@H](C)[C@@]3(O[C@@]1(C)[C@H](O)[C@H]3C)O2` [Anhydroerythromycin A], the Molar volume is recorded as 590.7 ± 5.0 cm^3.

For `CO/C1=C\C(C)=C\[C@@H](C)[C@@H](O)[C@@H](C)C/C(C)=C/C=C/[C@H](OC)[C@@H]([C@@H](C)[C@@H](O)[C@H](C)[C@@]2(O)C[C@@H](O)[C@H](C)[C@@H](C(C)C)O2)OC1=O` [Bafilomycin A1 (4730700), Bafilomycin A1], the Molar volume is recorded as 552.3 ± 5.0 cm^3.

As for `C[C@H](N)C(=O)N[C@@H](C)P(=O)(O)O` [L-Alanyl-L-1-aminoethylphosphonic acid], the Molar volume is 140.5 ± 3.0 cm^3.

For the compound “Reveromycin A [Reveromycin A (MFCD00912537)]”, the Molar volume is 542.2 ± 5.0 cm^3.

For the compound `C[C@@H]1CN(c2c(F)c(N)c3c(=O)c(C(=O)O)cn(C4CC4)c3c2F)C[C@H](C)N1` [Sparfloxacin], the Molar volume is reported as 273.2 ± 3.0 cm^3.

For `N=C(N)NCCCC[C@H](O)CC(=O)NC(O)C(=O)NCCCCNCCCN` (stereo partly drawn) [Spergualin], the Molar volume is listed as 304.4 ± 7.0 cm^3.

On to `CCC(=C/[C@H](C)C/C=C/C(C)=C/[C@@H](C)C(=O)[C@@H](C)[C@H](O)[C@@H](C)C/C(C)=C/C(=O)O)/C=C/[C@@H]1OC(=O)C=C[C@@H]1C` [Leptomycin B], for which the Molar volume is 504.3 ± 3.0 cm^3.

As to `C=C1[C@@H](C)[C@H]2[C@H](Cc3ccccc3)NC(=O)[C@]23OC(=O)/C=C/[C@H](O)CCC[C@@H](C)C/C=C/[C@H]3[C@@H]1O` [Cytochalasin B (Phomin), Cytochalasin B], the Molar volume is listed as 396.8 ± 5.0 cm^3.

Regarding `C=CCNC1=C2C[C@@H](C)C[C@H](OC)[C@H](O)[C@@H](C)/C=C(\C)[C@H](OC(N)=O)[C@@H](OC)/C=C\C=C(/C)C(=O)NC(=CC1=O)C2=O` [17-(Allylamino)-17-demethoxygeldanamycin], the Molar volume is 483.3 ± 5.0 cm^3.

The data set is the same for the next values; noted with them: Table 2, anticancer drugs; cited from earlier work.
As for `CO[C@H]1C[C@@H]2CC[C@@H](C)[C@@](O)(O2)C(=O)C(=O)N2CCCC[C@H]2C(=O)O[C@H]([C@H](C)C[C@@H]2CC[C@@H](OC(=O)C(C)(CO)CO)[C@H](OC)C2)CC(=O)[C@H](C)/C=C(\C)[C@@H](O)[C@@H](OC)C(=O)[C@H](C)C[C@H](C)/C=C/C=C/C=C/1C` [Temsirolimus (Torisel), Temsirolimus], the Molar volume is 853.1 ± 5.0 cm^3.

As for `COc1c(OCCCN2CCOCC2)ccc2c1N=C(NC(=O)c1cnc(N)nc1)N1CCN=C21` [Aliqopa (Copanlisib Hydrochloride), Copanlisib Hydrochloride], the Molar volume is 317.6 ± 7.0 cm^3.

As to `O=C(c1ccc(F)c(F)c1Nc1ccc(I)cc1F)N1CC(O)([C@@H]2CCCCN2)C1` [Cobimetinib], the Molar volume is given as 311.3 ± 3.0 cm^3.

As for `NC(=O)NO` [Hydrea (Hydroxyurea), Hydroxyurea], the Molar volume is 52.1 ± 3.0 cm^3.

Turning to `Cc1cn(-c2cc(NC(=O)c3ccc(C)c(Nc4nccc(-c5cccnc5)n4)c3)cc(C(F)(F)F)c2)cn1` [Nilotinib (Tasigna), Nilotinib], the Molar volume is 388.6 ± 7.0 cm^3.

As for `S=c1nc[nH]c2nc[nH]c12` [Mercaptopurine], the Molar volume is 94.1 ± 3.0 cm^3.

In the case of `C[C@@H](O[C@H]1OCCN(Cc2n[nH]c(=O)[nH]2)[C@H]1c1ccc(F)cc1)c1cc(C(F)(F)F)cc(C(F)(F)F)c1` [Aprepitant], the Molar volume is listed as 353.5 ± 7.0 cm^3.

As for `CCNC(=O)[C@@H]1CCCN1C(=O)[C@H](CCCNC(=N)N)NC(=O)[C@H](CC(C)C)NC(=O)[C@@H](CC(C)C)NC(=O)[C@H](Cc1ccc(O)cc1)NC(=O)[C@H](CO)NC(=O)[C@H](Cc1c[nH]c2ccccc12)NC(=O)[C@H](Cc1c[nH]cn1)NC(=O)[C@@H]1CCC(=O)N1` [Leuprolide Acetate), Leuprolide Acetate], the Molar volume was 834.5 ± 7.0 cm^3.

As for `c1cc(CN2CCCNCCNCCCNCC2)ccc1CN1CCCNCCNCCCNCC1` [Mozobil (Plerixafor), Plerixafor], the Molar volume is given as 522.2 ± 3.0 cm^3.

As to `C#Cc1cccc(Nc2ncnc3cc(OCCOC)c(OCCOC)cc23)c1` [Erlotinib Hydrochloride (Tarceva), Erlotinib Hydrochloride], the Molar volume was 315.4 ± 5.0 cm^3.

Regarding `CN(C)C/C=C/C(=O)Nc1cc2c(Nc3ccc(F)c(Cl)c3)ncnc2cc1O[C@H]1CCOC1` [Gilotrif (Afatinib Dimaleate), Afatinib Dimaleate], the Molar volume is on record as 351.9 ± 3.0 cm^3.

With `CC(=O)O[C@@]12CO[C@@H]1C[C@H](O)[C@@]1(C)C(=O)[C@H](O)C3=C(C)[C@@H](OC(=O)[C@H](O)[C@@H](NC(=O)OC(C)(C)C)c4ccccc4)C[C@@](O)([C@@H](OC(=O)c4ccccc4)[C@H]21)C3(C)C` [Docetaxel (Taxotere), Docetaxel], the Molar volume was 585.7 ± 5.0 cm^3.

Turning to `CN(C)CCOc1ccc(/C(=C(/CCCl)c2ccccc2)c2ccccc2)cc1` [Fareston (Toremifene), Toremifene], the Molar volume is 367.6 ± 3.0 cm^3.

For the compound `Cc1c(C(=O)Nc2ccc(N3C[C@@H](C)O[C@@H](C)C3)nc2)cccc1-c1ccc(OC(F)(F)F)cc1` [Odomzo (Sonidegib), Sonidegib], the Molar volume was 386.7 ± 3.0 cm^3.

In the case of `CO[C@H]1C[C@@H]2CC[C@@H](C)[C@@](O)(O2)C(=O)C(=O)N2CCCC[C@H]2C(=O)O[C@H]([C@H](C)C[C@@H]2CC[C@@H](OCCO)[C@H](OC)C2)CC(=O)[C@H](C)/C=C(\C)[C@@H](O)[C@@H](OC)C(=O)[C@H](C)C[C@H](C)/C=C/C=C/C=C/1C` [Afinitor (Everolimus), Everolimus], the Molar volume is on record as 811.2 ± 5.0 cm^3.

`CC1(C)NC(=O)N(c2ccc([N+](=O)[O-])c(C(F)(F)F)c2)C1=O` [Nilandron (Nilutamide), Nilutamide]: the Molar volume is listed as 216.7 ± 3.0 cm^3.

Regarding `O=C1CCC(N2C(=O)c3ccccc3C2=O)C(=O)N1` (stereo not drawn) [Thalidomide], the Molar volume was 171.7 ± 3.0 cm^3.

Take `NCCCNCCSP(=O)(O)O` [Amifostine]: the Molar volume is 156.6 ± 3.0 cm^3.

`Nc1cccc2c1CN(C1CCC(=O)NC1=O)C2=O` (stereo not drawn) [Lenalidomide]: the Molar volume was 177.4 ± 3.0 cm^3.

As to `CNC(=O)c1cc(Oc2ccc(NC(=O)Nc3ccc(Cl)c(C(F)(F)F)c3)cc2)ccn1` [Nexavar (Sorafenib Tosylate), Sorafenib Tosylate], the Molar volume is 319.4 ± 3.0 cm^3.

Regarding `C=C(c1ccc(C(=O)O)cc1)c1cc2c(cc1C)C(C)(C)CCC2(C)C` [Bexarotene (Targretin), Bexarotene], the Molar volume is on record as 334.2 ± 3.0 cm^3.

The data set is the same for the next values; noted with them: Table 3, antifungal drugs and other molecules; cited from earlier work.
As to `Cc1ccc(C(C)C)c(O)c1` [Thymol (5-Methyl-2-isopropylphenol), 5-Methyl-2-isopropylphenol], the Molar volume is reported as 150.2 cm^3.

In the case of `CC(C)CCCCCCCCC[C@@H]1CC(=O)N[C@@H](CCC(=O)O)C(=O)N[C@@H](CC(C)C)C(=O)N[C@H](CC(C)C)C(=O)N[C@@H](C(C)C)C(=O)N[C@@H](CC(=O)O)C(=O)N[C@H](CC(C)C)C(=O)N[C@@H](CC(C)C)C(=O)O1` [Surfactin] (EL[dL]VD[dL]L; linker N-C via X1), the Molar volume is 998.6 ± 3.0 cm^3.

Staying with this data set, now noted: fluorescent dyes; cited from earlier work.
`O=C(O)CN(CC(=O)O)Cc1cc2c(cc1O)Oc1cc(O)c(CN(CC(=O)O)CC(=O)O)cc1C21OC(=O)c2ccccc21` [calcein]: the Molar volume is given as 356±5 cm^3/mole.
